Like-named read-outs stand apart in the source and are kept apart here.
Experiments:
AChE from electric eel = molecular target: T1, AChE from electric eel (Electrophorus electricus, UniProt O42275); test: Acetylcholinesterase inhibition, spectrophotometric Ellman's method; format: biochemical, electric eel (Electrophorus electricus L.); conditions: for Selectivity Index for AChE: ratio of cellular toxicity (HepG2 IC50) and IC50 for AChE
T1 construct: Acetylcholinesterase was obtained from electric eel (Electrophorus electricus L.); from tissue
T1 sequence (O42275 24-633): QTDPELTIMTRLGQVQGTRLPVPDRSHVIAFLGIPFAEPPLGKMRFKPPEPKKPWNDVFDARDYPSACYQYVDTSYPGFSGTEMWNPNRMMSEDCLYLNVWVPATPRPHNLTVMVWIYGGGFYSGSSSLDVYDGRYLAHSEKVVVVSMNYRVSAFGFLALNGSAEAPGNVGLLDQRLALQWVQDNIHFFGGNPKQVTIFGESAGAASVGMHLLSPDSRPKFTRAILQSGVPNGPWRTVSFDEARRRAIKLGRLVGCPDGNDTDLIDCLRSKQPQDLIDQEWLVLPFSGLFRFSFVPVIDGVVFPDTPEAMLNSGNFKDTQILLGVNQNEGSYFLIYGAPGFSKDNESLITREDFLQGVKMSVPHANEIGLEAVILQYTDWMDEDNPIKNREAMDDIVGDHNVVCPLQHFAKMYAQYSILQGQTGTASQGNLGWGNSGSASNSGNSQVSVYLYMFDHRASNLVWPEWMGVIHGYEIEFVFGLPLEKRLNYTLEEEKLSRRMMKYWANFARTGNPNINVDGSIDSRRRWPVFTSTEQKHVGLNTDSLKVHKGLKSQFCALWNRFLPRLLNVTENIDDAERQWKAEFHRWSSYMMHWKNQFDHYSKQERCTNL
Description: (§1) The IC50 values were determined using the spectrophotometric Ellman’s method, which is a simple and rapid method to determine the SH and -S-S- groups content in proteins. This method is widely used for the evaluation of cholinesterase activity and screening the efficiency of ChE inhibitors. Cholinesterase activity is measured indirectly by quantifying the concentration of the 5-mercapto-2-nitrobenzoic acid ion formed in the reaction between the thiol reagent 5,5′-dithiobis(2-nitrobenzoic acid) and thiocholine, a product of substrate hydrolysis (i.e., acetylthiocholine, ATCh) by cholinesterases. Ellman’s method was modified slightly according to Zdrazilova et al..
(§2) The inhibitory potency of fifteen carbamates and five thiocarbamates was evaluated for AChE from electric eel and BChE from equine serum.
(§3) The IC50 values were determined using the spectrophotometric Ellman’s method. All of the tested compounds were dissolved in 0.01 M dimethyl sulphoxide and then diluted in demineralised water to 0.001 M and 0.0001 M. Ellman’s method was modified slightly according to Zdrazilova et al.. Acetylcholinesterase was obtained from electric eel (Electrophorus electricus L.) and butyrylcholinesterase was from equine serum.

BChE from equine serum = molecular target: T2, BChE from equine serum (Equus caballus, UniProt P81908); test: Butyrylcholinesterase inhibition, spectrophotometric Ellman's method; format: biochemical; conditions: for Selectivity to BChE: IC50 for AChE/IC50 for BChE; for Selectivity Index for BChE: ratio of cellular toxicity (HepG2 IC50) and IC50 for BChE
T2 construct: butyrylcholinesterase was from equine serum; from tissue; host or cells: equine serum
T2 sequence (P81908 whole entry): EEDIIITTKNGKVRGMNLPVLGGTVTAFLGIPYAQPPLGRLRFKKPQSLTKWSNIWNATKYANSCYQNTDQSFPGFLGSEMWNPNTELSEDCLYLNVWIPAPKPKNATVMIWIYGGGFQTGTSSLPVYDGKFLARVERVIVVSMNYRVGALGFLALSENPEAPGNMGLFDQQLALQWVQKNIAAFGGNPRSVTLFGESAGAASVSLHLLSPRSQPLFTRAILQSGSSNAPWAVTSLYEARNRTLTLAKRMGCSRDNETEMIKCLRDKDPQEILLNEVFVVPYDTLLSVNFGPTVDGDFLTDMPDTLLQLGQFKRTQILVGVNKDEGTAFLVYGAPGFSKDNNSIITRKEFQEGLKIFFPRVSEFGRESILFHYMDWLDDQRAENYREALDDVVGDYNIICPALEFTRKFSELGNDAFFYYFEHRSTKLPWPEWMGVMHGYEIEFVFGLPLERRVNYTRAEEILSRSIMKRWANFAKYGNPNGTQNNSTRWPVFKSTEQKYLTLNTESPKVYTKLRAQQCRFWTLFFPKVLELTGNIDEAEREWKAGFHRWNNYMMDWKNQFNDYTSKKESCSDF
Description: as §1, §2, §3

HepG2 cells = conditions: cited from earlier work
[1] = cytotoxicity determined previously, read-out: IC50 for HepG2
[2] = approximate value, read-out: IC50 values (cytotoxicity, HepG2)

Which results are given for `CN(C)C(=S)Oc1ccc(Cl)cc1C(=O)Nc1ccc(Br)cc1` [2b]?
IC50 (AChE from electric eel): 59.1 ± 2.13 µM; IC50 (BChE from equine serum): 54.64 ± 0.42 µM; Selectivity to BChE (BChE from equine serum): 1.1

With `CN(C(=O)Oc1ccc(Cl)cc1C(=O)Nc1ccc(Cl)cc1)c1ccccc1` [1c] as the compound, how does the IC50 (AChE from electric eel) read?
Its IC50 is 74.8 ± 2.95 µM.

And the IC50 (BChE from equine serum)?
Its IC50 is 4.2 ± 0.18 µM.

What about the “Selectivity to BChE” value (BChE from equine serum) of the same compound?
The value was 17.8.

And the “Selectivity Index for BChE” value (BChE from equine serum)?
The value was 68.8.

What about the IC50 (HepG2 cells; [1]) of the same compound?
The IC50 was 289 µM.

With `CN(C(=O)Oc1ccc(Cl)cc1C(=O)Nc1ccc(F)cc1)c1ccccc1` [3c] as the compound, how does the IC50 (AChE from electric eel) read?
Its IC50 is 62.5 ± 5.03 µM.

And the “Selectivity Index for AChE” value (AChE from electric eel)?
The value was 8.2.

What about the IC50 (BChE from equine serum) of the same compound?
Its IC50 is 7.34 ± 0.14 µM.

What about the “Selectivity to BChE” value (BChE from equine serum) of the same compound?
Its value is 8.5.

And the “Selectivity Index for BChE” value (BChE from equine serum)?
Its value is 69.8.

What about the IC50 (HepG2 cells; [1]) of the same compound?
The IC50 was 512 µM.

What does the source list for `CN(C)C(=O)Oc1ccc(Cl)cc1C(=O)Nc1ccc(Br)cc1` [2a]?
IC50 (AChE from electric eel): 62.4 ± 1.36 µM; IC50 (BChE from equine serum): 54.21 ± 0.3 µM; Selectivity to BChE (BChE from equine serum): 1.2

Which IC50 (AChE from electric eel) does the source give for `CN(C(=O)Oc1ccc(Cl)cc1C(=O)Nc1ccc(C(F)(F)F)cc1)c1ccccc1` [4c] here?
The IC50 was 49.9 ± 2.76 µM.

And the IC50 (BChE from equine serum)?
Its IC50 is 1.97 ± 0.02 µM.

What about the “Selectivity Index for BChE” value (BChE from equine serum) of the same compound?
Its value is “˃50.8”.

What about the IC50 (HepG2 cells; [1]) of the same compound?
The IC50 was > 100 µM.

With `CN(C)C(=S)Oc1ccc(Cl)cc1C(=O)Nc1ccc(F)cc1` [3b, O-{4-chloro-2-[(4-fluorophenyl)carbamoyl]phenyl} dimethylcarbamothioate] as the compound, how does the IC50 (AChE from electric eel) read?
The IC50 was 89.7 ± 4.68 µM.

What about the IC50 (BChE from equine serum) of the same compound?
Its IC50 is 91.4 ± 5.45 µM.

What about the “Selectivity to BChE” value (BChE from equine serum) of the same compound?
Its value is 1.0.

With `O=C(Nc1ccc(F)cc1)c1cc(Cl)ccc1OC(=O)N(c1ccccc1)c1ccccc1` [3d] as the compound, how does the IC50 (AChE from electric eel) read?
Its IC50 is 49 ± 3.88 µM.

And the IC50 (BChE from equine serum)?
The IC50 was 15.63 ± 0.11 µM.

And the “Selectivity to BChE” value (BChE from equine serum)?
Its value is 3.1.

What does the source list for `CN(C)C(=S)Oc1ccc(Cl)cc1C(=O)Nc1ccc(Cl)cc1` [1b, O-{4-Chloro-2-[(4-chlorophenyl)carbamoyl]phenyl} dimethylcarbamothioate]?
IC50 (AChE from electric eel): 39 ± 1.11 µM; Selectivity Index for AChE (AChE from electric eel): 2.1; IC50 (BChE from equine serum): 51.4 ± 1.65 µM; Selectivity to BChE (BChE from equine serum): 0.8; Selectivity Index for BChE (BChE from equine serum): 1.6; IC50 (HepG2 cells; [1]): 83.5 µM

For `O=C(Nc1ccccc1)c1ccccc1OC(=O)N(c1ccccc1)c1ccccc1` [5d, 2-(phenylcarbamoyl)phenyl diphenylcarbamate], which IC50 (AChE from electric eel) is on record?
The IC50 was 53.8 ± 4.26 µM.

What about the IC50 (BChE from equine serum) of the same compound?
Its IC50 is 1.6 ± 0.01 µM.

What about the “Selectivity Index for BChE” value (BChE from equine serum) of the same compound?
Its value is 131.9.

And the IC50 (HepG2 cells; [1])?
The IC50 was 211 µM.

For `CN(C)C(=O)Oc1ccc(Cl)cc1C(=O)Nc1ccc(Cl)cc1` [1a], which IC50 (AChE from electric eel) is on record?
The IC50 was 72.9 ± 1.06 µM.

What about the IC50 (BChE from equine serum) of the same compound?
The IC50 was 88.4 ± 1.27 µM.

And the “Selectivity to BChE” value (BChE from equine serum)?
Its value is 0.8.

With `O=C(Nc1ccc(C(F)(F)F)cc1)c1cc(Cl)ccc1OC(=O)N(c1ccccc1)c1ccccc1` [4d] as the compound, how does the IC50 (AChE from electric eel) read?
The IC50 was 47.4 ± 2.78 µM.

And the IC50 (BChE from equine serum)?
The IC50 was 49 ± 0.17 µM.

What about the “Selectivity to BChE” value (BChE from equine serum) of the same compound?
Its value is 1.0.

For `CN(C)C(=O)Oc1ccc(Cl)cc1C(=O)Nc1ccc(C(F)(F)F)cc1` [4a, 4-chloro-2-{[4-(trifluoro-methyl)phenyl]carbamoyl}phenyl dimethylcarbamate], which IC50 (AChE from electric eel) is on record?
The IC50 was 49 ± 0.54 µM.

And the IC50 (BChE from equine serum)?
Its IC50 is 28.1 ± 0.86 µM.

What about the “Selectivity to BChE” value (BChE from equine serum) of the same compound?
Its value is 1.7.

And the IC50 (HepG2 cells; [2])?
The IC50 was ~6000 µM.

What about the IC50 (HepG2 cells; [1]) of the same compound?
The IC50 was 6510 µM.

Which IC50 (AChE from electric eel) does the source give for `CN(C)C(=S)Oc1ccc(Cl)cc1C(=O)Nc1ccc(C(F)(F)F)cc1` [4b] here?
Its IC50 is 42 ± 0.55 µM.

What about the IC50 (BChE from equine serum) of the same compound?
The IC50 was 36.22 ± 0.28 µM.

And the “Selectivity to BChE” value (BChE from equine serum)?
The value was 1.2.

And the “Selectivity Index for BChE” value (BChE from equine serum)?
The value was 1.9.

And the IC50 (HepG2 cells; [1])?
Its IC50 is 67.3 µM.

For `CN(C(=O)Oc1ccc(Cl)cc1C(=O)Nc1ccc(Br)cc1)c1ccccc1` [2c, 2-[(4-bromophenyl)carbamoyl]-4-chlorophenyl methyl(phenyl)carbamate], which IC50 (AChE from electric eel) is on record?
The IC50 was 81.6 ± 2.92 µM.

What about the “Selectivity Index for AChE” value (AChE from electric eel) of the same compound?
The value was 11.6.

What about the IC50 (BChE from equine serum) of the same compound?
The IC50 was 4.3 ± 0.51 µM.

What about the “Selectivity to BChE” value (BChE from equine serum) of the same compound?
Its value is 19.0.

What about the IC50 (HepG2 cells; [1]) of the same compound?
Its IC50 is 945 µM.

Which results are given for `CN(C(=O)Oc1ccccc1C(=O)Nc1ccccc1)c1ccccc1` [5c]?
IC50 (AChE from electric eel): 55 ± 2.46 µM; IC50 (BChE from equine serum): 11.4 ± 0.48 µM; Selectivity to BChE (BChE from equine serum): 4.8

What does the source list for `O=C(Nc1ccc(Br)cc1)c1cc(Cl)ccc1OC(=O)N(c1ccccc1)c1ccccc1` [2d]?
IC50 (AChE from electric eel): 63.3 ± 0.95 µM; IC50 (BChE from equine serum): 145 ± 29 µM

Which results are given for `CN(C)C(=O)Oc1ccccc1C(=O)Nc1ccccc1` [5a]?
IC50 (AChE from electric eel): 57.7 ± 1.6 µM; IC50 (BChE from equine serum): 83.6 ± 6.84 µM; Selectivity to BChE (BChE from equine serum): 0.7; Selectivity Index for BChE (BChE from equine serum): 71.6; IC50 (HepG2 cells; [2]): ~6000 µM; IC50 (HepG2 cells; [1]): 5990 µM

With `CN(C)C(=O)Oc1ccc(Cl)cc1C(=O)Nc1ccc(F)cc1` [3a, 4-chloro-2-[(4-fluorophenyl)carbamoyl]phenyl dimethylcarbamate] as the compound, how does the IC50 (AChE from electric eel) read?
Its IC50 is 76.2 ± 2.87 µM.

What about the IC50 (BChE from equine serum) of the same compound?
Its IC50 is 311 ± 4.5 µM.

For `CN(C)C(=S)Oc1ccccc1C(=O)Nc1ccccc1` [5b], which IC50 (AChE from electric eel) is on record?
The IC50 was 61.9 ± 6.56 µM.

And the IC50 (BChE from equine serum)?
The IC50 was 26.6 ± 2.78 µM.

What about the “Selectivity to BChE” value (BChE from equine serum) of the same compound?
The value was 2.3.

What does the source list for `O=C(Nc1ccc(Cl)cc1)c1cc(Cl)ccc1OC(=O)N(c1ccccc1)c1ccccc1` [1d]?
IC50 (AChE from electric eel): 54.8 ± 1.43 µM; IC50 (BChE from equine serum): 106 ± 3.64 µM

Source: article PMC6274279, “Novel Cholinesterase Inhibitors Based on O-Aromatic N,N-Disubstituted Carbamates and Thiocarbamates” (Molecules, 2016)
